Measurements published in the supplement of paper PMC10307832.

What was measured:
Experiment in all cases: relative viability (nuclei count vs DMSO), 5 days (fraction); higher = more cells survive
[1] = compound: Cc1ccc(C(=O)N(CCCN)[C@@H](c2nc3cc(Cl)ccc3c(=O)n2Cc2ccccc2)C(C)C)cc1 [Ispinesib] + Cc1nc(Nc2ncc(C(=O)Nc3c(C)cccc3Cl)s2)cc(N2CCN(CCO)CC2)n1 [Dasatinib] (partner 0.075 µM)
How it was run: (§1)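 Cells from lung cancer lines were seeded into 1536-well plates and, one day later, dosed by pin tool. Treatments were either a single drug or a fixed dose of an anchor drug with five library-drug doses (not always all listed) in √10 steps. After 5 days, nuclei were stained in a one-step fixation (final 0.05% Triton X-100, 1% formaldehyde, 1 ug/ml Hoechst) and counted on 4× images, and relative viability is the treated-to-vehicle nuclei ratio, as the median of duplicate plates.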

[2] = compound: C[C@]1(O)C[C@@H](c2nc(-c3ccc4ccc(-c5ccccc5)nc4c3)c3c(N)nccn32)C1 [Linsitinib] + O=C(c1cc(Cc2n[nH]c(=O)c3ccccc23)ccc1F)N1CCN(C(=O)C2CC2)CC1 [Olaparib] (partner 8 µM)
How it was run: as §1

[3] = compound: C[C@]1(O)C[C@@H](c2nc(-c3ccc4ccc(-c5ccccc5)nc4c3)c3c(N)nccn32)C1 [Linsitinib] + Cc1cc(Nc2cc(N3CCN(C)CC3)nc(Sc3ccc(NC(=O)C4CC4)cc3)n2)n[nH]1 [Tozasertib] (partner 0.1 µM)
How it was run: as §1

[4] = compound: Cc1ccc(C(=O)N(CCCN)[C@@H](c2nc3cc(Cl)ccc3c(=O)n2Cc2ccccc2)C(C)C)cc1 [Ispinesib] + CCNC(=O)c1noc(-c2cc(C(C)C)c(O)cc2O)c1-c1ccc(CN2CCOCC2)cc1 [Luminespib] (partner 0.01 µM)
How it was run: as §1

Cell Line | relative viability ([1]; first compound 0.001 µM) | relative viability ([1]; first compound 0.003162 µM) | relative viability ([1]; first compound 0.01 µM) | relative viability ([1]; first compound 0.03162 µM) | relative viability ([1]; first compound 0.1 µM) | relative viability ([2]; first compound 0.01 µM) | relative viability ([2]; first compound 0.03162 µM) | relative viability ([2]; first compound 0.1 µM) | relative viability ([2]; first compound 0.3162 µM) | relative viability ([2]; first compound 1 µM) | relative viability ([3]; first compound 0.01 µM) | relative viability ([3]; first compound 0.03162 µM) | relative viability ([3]; first compound 0.1 µM) | relative viability ([3]; first compound 0.3162 µM) | relative viability ([3]; first compound 1 µM) | relative viability ([4]; first compound 0.001 µM) | relative viability ([4]; first compound 0.003162 µM) | relative viability ([4]; first compound 0.01 µM) | relative viability ([4]; first compound 0.03162 µM) | relative viability ([4]; first compound 0.1 µM)
NCI-H2023 | 0.693 | 0.613 | 0.613 | 0.306 | 0.146 | 0.468 | 0.39 | 0.617 | 0.378 | 0.453 | 0.256 | 0.228 | 0.36 | 0.196 | 0.177 | 0.793 | 0.628 | 1.07 | 0.29 | 0.179
EKVX | 0.601 | 0.59 | 0.429 | 0.605 | 0.439 | – | 0.861 | 0.951 | 0.489 | 0.648 | 0.362 | 0.385 | 0.493 | 0.214 | 0.352 | 0.837 | 0.875 | 0.937 | 0.829 | 0.563
NCI-H2085 | 0.228 | 0.225 | 0.242 | 0.261 | 0.206 | 0.743 | 0.795 | 0.901 | 0.713 | 0.805 | 0.768 | 0.748 | 0.932 | 0.817 | 0.706 | 0.484 | 0.421 | 0.491 | 0.401 | 0.447
NCI-H3122 | 0.944 | 0.917 | 0.973 | 0.759 | 0.127 | 0.557 | 0.541 | 0.547 | – | 0.503 | 0.458 | 0.373 | 0.437 | – | 0.425 | 0.105 | 0.12 | 0.0892 | 0.0855 | 0.0889
HCC-827 | 0.36 | 0.318 | 0.317 | 0.292 | 0.263 | 0.759 | 0.377 | 0.606 | – | 0.625 | 0.43 | 0.426 | 0.433 | – | 0.393 | 0.69 | 0.536 | 0.876 | 0.482 | 0.529
HARA | 0.26 | 0.258 | 0.301 | 0.293 | 0.0741 | 0.631 | 0.396 | 0.69 | – | 0.935 | 0.135 | 0.106 | 0.202 | – | 0.138 | 1.12 | 0.617 | 0.788 | 0.64 | 0.233
NCI-H441 | 0.713 | 0.634 | 0.453 | 0.293 | 0.266 | 0.515 | 0.667 | 0.487 | 0.399 | 0.435 | 0.612 | 1.08 | 0.671 | 0.509 | 0.404 | 0.346 | 0.404 | 0.448 | 0.389 | 0.292
SK-MES-1 | 0.326 | 0.373 | 0.384 | 0.165 | 0.231 | 0.702 | 0.784 | 0.633 | 0.584 | 0.557 | 0.92 | 0.895 | 0.927 | 0.8 | 0.676 | 0.954 | 0.691 | 0.966 | 0.203 | 0.221
SW 900 | 0.561 | 0.654 | 0.782 | 0.246 | 0.196 | 0.685 | 0.872 | 0.821 | 0.793 | 0.667 | 0.635 | 0.598 | 0.535 | 0.513 | 0.342 | 0.206 | 0.171 | 0.164 | 0.183 | 0.19
